Test results taken from patent publication US10363239B2, “Method for inhibiting growth of cancer cells” (Pain Therapeutics, Inc., priority 2013, dated 2019).
Like-named read-outs stand apart in the source and are kept apart here.

Columns and labels:
[1] = biological target: FLNA pentapeptide of SEQ ID NO: 1 (Bn-VAKGL) (Homo sapiens, UniProt P21333); test: FITC-NLX-based FLNA screening assay (inhibition of FITC-naloxone binding to Bn-VAKGL on streptavidin plates); conditions: 10 nM FITC-NLX
mu opiate receptor (MOR) = test: MOR agonist activity using [35S]GTPγS binding assay in striatal membranes; assay type: biochemical; conditions: for MOR agonist activity ([35S]GTPγS binding), FLNA-Binding Compound as Agonist 1 μM + BFNA: 1 μM compound + 1 μM β-funaltrexamine
How it was run: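 Striatal membranes (200 μg) were preincubated 5 min at 30 °C in HEPES pH 7.5 with 100 mM NaCl, 1 mM MgCl2 and 0.5 nM [35S]GTPγS, then 5 min more with 0.1–10 μM compound. Gαo was immunoprecipitated and bound radioactivity counted by scintillation.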

[2] = 0.1 μM compound relative to DAMGO
[3] = 1 μM compound + BFNA relative to DAMGO + BFNA
[4] = 1 μM compound relative to DAMGO
[5] = read-out: Percent Binding Inhibition, FLNA-binding compound 0.01 μM
[6] = read-out: Percent Binding Inhibition, FLNA-binding compound 0.1 μM
[7] = read-out: Percent Binding Inhibition, FLNA-binding compound 1 μM
[8] = FLNA-binding compound 0.01 μM, read-out: Percent Binding Inhibition
[9] = FLNA-binding compound 0.1 μM, read-out: Percent Binding Inhibition
[10] = FLNA-binding compound 1 μM, read-out: Percent Binding Inhibition
[11] = Series B, 0.1 μM compound, relative to DAMGO
[12] = Series B, 0.1 μM compound, [35S]GTPγS binding to Gαo, striatal membranes
[13] = Series B, 1 μM compound + 1 μM β-FNA
[14] = Series B, 1 μM compound + β-FNA, relative to DAMGO + BFNA
[15] = Series B, 1 μM compound, relative to DAMGO
[16] = Series B, 1 μM compound, [35S]GTPγS binding to Gαo, striatal membranes

Q: How did the “Percent Binding Inhibition” value ([1]; FLNA-binding compound 0.01 μM) turn out when `COc1ccc(OCC(O)CN2CCCc3ccccc32)cc1` (stereo not drawn) [Compound A0067] was run?
A: 32.7%

Q: And the “Percent Binding Inhibition” value ([1]; FLNA-binding compound 0.1 μM)?
A: 39.1%

Q: What about the “Percent Binding Inhibition” value ([1]; FLNA-binding compound 1 μM) of the same compound?
A: 44.3%

Q: And the “MOR agonist activity ([35S]GTPγS binding), FLNA-Binding Compound as Agonist 0.1 μM” value (mu opiate receptor (MOR); 0.1 μM compound)?
A: 170.8%

Q: What about the “% DAMGO (0.1 μM)” value (mu opiate receptor (MOR); [2]) of the same compound?
A: 99.2%

Q: And the “MOR agonist activity ([35S]GTPγS binding), FLNA-Binding Compound as Agonist 1 μM” value (mu opiate receptor (MOR); 1 μM compound)?
A: 254.4%

Q: What about the “MOR agonist activity ([35S]GTPγS binding), FLNA-Binding Compound as Agonist 1 μM + BFNA” value (mu opiate receptor (MOR)) of the same compound?
A: 33.9%

Q: What about the “% DAMGO + BFNA” value (mu opiate receptor (MOR); [3]) of the same compound?
A: 98.3%

Q: And the “% DAMGO (1 μM)” value (mu opiate receptor (MOR); [4])?
A: 115.8%

Q: Which results are given for `CC1CCC(C(C)C)C(OCC(O)CN2CCC2)C1` (stereo not drawn) [Compound A0015]?
A: inhibition at 0.01 µM [1, 5]: 36.3%; inhibition at 0.1 µM [1, 6]: 46.8%; inhibition at 1 µM [1, 7]: 55%; MOR agonist activity ([35S]GTPγS binding), FLNA-Binding Compound as Agonist 0.1 μM (mu opiate receptor (MOR); 0.1 μM compound): 110.9%; % DAMGO (0.1 μM) (mu opiate receptor (MOR); [2]): 64.8%; MOR agonist activity ([35S]GTPγS binding), FLNA-Binding Compound as Agonist 1 μM (mu opiate receptor (MOR); 1 μM compound): 150.1%; MOR agonist activity ([35S]GTPγS binding), FLNA-Binding Compound as Agonist 1 μM + BFNA (mu opiate receptor (MOR)): 62.5%; % DAMGO + BFNA (mu opiate receptor (MOR); [3]): 120.0%; % DAMGO (1 μM) (mu opiate receptor (MOR); [4]): 56.2%

Q: With `O=S(=O)(c1ccc(OC(F)(F)F)cc1)N1CCC2(CC1)OCCN2S(=O)(=O)c1ccc(OC(F)(F)F)cc1` [Compound C0006] as the compound, how does the inhibition at 0.01 µM [1, 5] read?
A: 41.6%

Q: And the inhibition at 0.1 µM [1, 6]?
A: 46.8%

Q: What about the inhibition at 1 µM [1, 7] of the same compound?
A: 51.8%

Q: And the “% DAMGO (0.1 μM)” value (mu opiate receptor (MOR); Series C-1, 0.1 μM compound, relative to DAMGO)?
A: 70.6%

Q: What about the “Concentration of FLNA-Binding Compound as Agonist 0.1 μM” value (mu opiate receptor (MOR); Series C-1, 0.1 μM compound, [35S]GTPγS binding to Gαo, striatal membranes) of the same compound?
A: 121.5%

Q: What about the “Concentration of FLNA-Binding Compound as Agonist 1 μM + BFNA” value (mu opiate receptor (MOR); Series C-1, 1 μM compound + 1 μM β-FNA) of the same compound?
A: 4.6%

Q: And the “% DAMGO + BFNA” value (mu opiate receptor (MOR); Series C-1, 1 μM compound + β-FNA, relative to DAMGO + BFNA)?
A: 7.2%

Q: What about the “% DAMGO (1 μM)” value (mu opiate receptor (MOR); Series C-1, 1 μM compound, relative to DAMGO) of the same compound?
A: 73.8%

Q: And the “Concentration of FLNA-Binding Compound as Agonist 1 μM” value (mu opiate receptor (MOR); Series C-1, 1 μM compound, [35S]GTPγS binding to Gαo, striatal membranes)?
A: 204.0%

Q: Which inhibition at 0.01 µM [1, 8] does the source give for `CN(C)c1cccc(OCC(O)CN2CCc3ccccc3C2)c1` (stereo not drawn) [Compound A0050] here?
A: 42.9%

Q: And the inhibition at 0.1 µM [1, 9]?
A: 49.8%

Q: And the inhibition at 1 µM [1, 10]?
A: 52.1%

Q: And the “MOR agonist activity ([35S]GTPγS binding), FLNA-Binding Compound as Agonist 0.1 μM” value (mu opiate receptor (MOR); 0.1 μM compound)?
A: 151.0%

Q: And the “% DAMGO (0.1 μM)” value (mu opiate receptor (MOR); [2])?
A: 77.0%

Q: And the “MOR agonist activity ([35S]GTPγS binding), FLNA-Binding Compound as Agonist 1 μM” value (mu opiate receptor (MOR); 1 μM compound)?
A: 189.3%

Q: What about the “MOR agonist activity ([35S]GTPγS binding), FLNA-Binding Compound as Agonist 1 μM + BFNA” value (mu opiate receptor (MOR)) of the same compound?
A: 81.0%

Q: What about the “% DAMGO + BFNA” value (mu opiate receptor (MOR); [3]) of the same compound?
A: 109.6%

Q: What about the “% DAMGO (1 μM)” value (mu opiate receptor (MOR); [4]) of the same compound?
A: 68.6%

Q: What does the source list for `COc1c2c(cc3c1C(CC(=O)c1ccc(N4CCOCC4)cc1)[N+](C)(C)CC3)OCO2` (stereo not drawn) [Compound B0004]?
A: inhibition at 0.01 µM [1, 5]: 38.9%; inhibition at 0.1 µM [1, 6]: 50%; inhibition at 1 µM [1, 7]: 54.8%; % DAMGO (0.1 μM) (mu opiate receptor (MOR); [11]): 102.8%; MOR agonist activity, percent [35S]GTPγS binding at the stated compound concentration (mu opiate receptor (MOR); [12]): 170.3%; MOR agonist activity, percent [35S]GTPγS binding at the stated compound concentration (mu opiate receptor (MOR); [13]): 72.0%; % DAMGO + BFNA (mu opiate receptor (MOR); [14]): 110.8%; % DAMGO (1 μM) (mu opiate receptor (MOR); [15]): 85.8%; MOR agonist activity, percent [35S]GTPγS binding at the stated compound concentration (mu opiate receptor (MOR); [16]): 231.7%

Q: How did the inhibition at 0.01 µM [1, 5] turn out when `COc1cccc(CCC(=O)CC2c3c(cc4c(c3OC)OCO4)CC[N+]2(C)C)c1` (stereo not drawn) [Compound B0034] was run?
A: 49.1%

Q: What about the inhibition at 0.1 µM [1, 6] of the same compound?
A: 54.2%

Q: And the inhibition at 1 µM [1, 7]?
A: 59.1%

Q: And the “% DAMGO (0.1 μM)” value (mu opiate receptor (MOR); [11])?
A: 71.6%

Q: And the “MOR agonist activity, percent [35S]GTPγS binding at the stated compound concentration” value (“MOR agonist activity, percent” below) (mu opiate receptor (MOR); [12])?
A: 122.5%

Q: What about the “MOR agonist activity, percent” value (mu opiate receptor (MOR); [13]) of the same compound?
A: 41.8%

Q: And the “% DAMGO + BFNA” value (mu opiate receptor (MOR); [14])?
A: 80.2%

Q: And the “% DAMGO (1 μM)” value (mu opiate receptor (MOR); [15])?
A: 88.1%

Q: What about the “MOR agonist activity, percent” value (mu opiate receptor (MOR); [16]) of the same compound?
A: 235.2%

Q: What does the source list for `CC1CCN(CC(O)COC2CC(C)CCC2C(C)C)CC1` (stereo not drawn) [Compound A0006]?
A: inhibition at 0.01 µM [1, 8]: 37.9%; inhibition at 0.1 µM [1, 9]: 43.5%; inhibition at 1 µM [1, 10]: 47.5%; MOR agonist activity ([35S]GTPγS binding), FLNA-Binding Compound as Agonist 0.1 μM (mu opiate receptor (MOR); 0.1 μM compound): 170.0%; % DAMGO (0.1 μM) (mu opiate receptor (MOR); [2]): 113.8%; MOR agonist activity ([35S]GTPγS binding), FLNA-Binding Compound as Agonist 1 μM (mu opiate receptor (MOR); 1 μM compound): 190.9%; MOR agonist activity ([35S]GTPγS binding), FLNA-Binding Compound as Agonist 1 μM + BFNA (mu opiate receptor (MOR)): 18.2%; % DAMGO + BFNA (mu opiate receptor (MOR); [3]): 68.7%; % DAMGO (1 μM) (mu opiate receptor (MOR); [4]): 82.9%

Q: `O=C1CN(Cc2ccccc2)C2(CCNCC2)N1` [Compound C0115M] was tested. Which inhibition at 0.01 µM [1, 5] did it give?
A: 47.8%

Q: And the inhibition at 0.1 µM [1, 6]?
A: 57.8%

Q: And the inhibition at 1 µM [1, 7]?
A: 59.9%

Q: And the “% DAMGO (0.1 μM)” value (mu opiate receptor (MOR); Series C-2, 0.1 μM compound, relative to DAMGO)?
A: 105.7%

Q: And the “MOR agonist activity, percent” value (mu opiate receptor (MOR); Series C-2, 0.1 μM compound, [35S]GTPγS binding to Gαo, striatal membranes)?
A: 177.2%

Q: And the “MOR agonist activity, percent” value (mu opiate receptor (MOR); Series C-2, 1 μM compound + 1 μM β-FNA)?
A: 118.4%

Q: And the “% DAMGO + BFNA” value (mu opiate receptor (MOR); Series C-2, 1 μM compound + β-FNA, relative to DAMGO + BFNA)?
A: 249.3%

Q: What about the “% DAMGO (1 μM)” value (mu opiate receptor (MOR); Series C-2, 1 μM compound, relative to DAMGO) of the same compound?
A: 102.0%

Q: What about the “MOR agonist activity, percent” value (mu opiate receptor (MOR); Series C-2, 1 μM compound, [35S]GTPγS binding to Gαo, striatal membranes) of the same compound?
A: 226.8%
